In assay [1] the test system is Candida parapsilosis 937 A. The assay can be described thus: Minimum Inhibitory Concentration (MIC) by broth dilution in microtitre tray, Candida parapsilosis 937 A. It is filed as cell-based. The conditions noted are these: 37° C., inoculum 10^5. The protocol:
(§1) The Minimum Inhibitory Concentration (MIC) was determined by diluting the test compound in a broth medium in a microtitre tray. The organisms, which had been grown previously in a broth medium (yeast nitrogen base+1% glucose), were diluted and added to the wells to provide a final inoculum of approximately 10^5 colony-forming units per well. The trays were incubated at 37° C. and the turbidity of each well noted at intervals. The MIC was taken as the lowest concentration (in μg/ml) which prevented significant growth. |Minimum Inhibitory Concentration (μg/ml) |(determined after 2 and 3 days incubation) | *Inoculum 10^5 cells/ml

The next assay relates to Candida albicans 73/079. The assay can be described thus: Minimum Inhibitory Concentration (MIC) by broth dilution in microtitre tray, Candida albicans 73/079. It is filed as cell-based. The conditions noted are these: 37° C., inoculum 10^5. How it is done: as §1
Setting [2] is: 48 h, determined after 2 days incubation.
Where [3] appears, read: 72 h, determined after 3 days incubation.
The mark [4] stands for this setting: 48 h, Candida albicans 73/079, determined after 2 days incubation.
Where [5] appears, read: 72 h, Candida albicans 73/079, determined after 3 days incubation.

For three molecules, MIC results are on record in patent US5116960A, “Amphotericin B derivatives” (Beecham Group p.l.c., priority 1988, dated 1992).

≈ marks a conversion by molar mass, not a printed value.

Consider `COC(=O)[C@H]1[C@@H]2C[C@@H](O[C@@H]3O[C@H](C)[C@@H](O)[C@H](N)[C@@H]3O)/C=C/C=C/C=C/C=C/C=C/C=C/C=C/[C@H](C)[C@@H](O)[C@@H](C)[C@H](C)OC(=O)C[C@H](O)C[C@H](O)CC[C@@H](O)[C@H](O)C[C@H](O)CC(=C[C@@H]1O)O2` [Example E10], for which the MIC in assay [1] (setting [2]) is 32 µg/mL (≈ 34.8 µM); in assay [1] (setting [3]) it was 32 µg/mL (≈ 34.8 µM); against Candida albicans 73/079 (setting [4]), 16 µg/mL (≈ 17.4 µM); against Candida albicans 73/079 (setting [5]), 32 µg/mL (≈ 34.8 µM).
For the molecule `C[C@@H]1[C@H](O)[C@@H](C)/C=C/C=C/C=C/C=C/C=C/C=C/C=C/[C@H](O[C@@H]2O[C@H](C)[C@@H](O)[C@H](N)[C@@H]2O)C[C@@H]2OC(=C[C@H](O)[C@H]2CO)C[C@@H](O)C[C@@H](O)[C@H](O)CC[C@@H](O)C[C@@H](O)CC(=O)O[C@H]1C` [Example E12], the minimal inhibitory concentration (MIC) in assay [1] (setting [2]) was 8 µg/mL (≈ 8.97 µM); in assay [1] (setting [3]) it was 16 µg/mL (≈ 17.9 µM); with Candida albicans 73/079 (setting [4]), 4 µg/mL (≈ 4.48 µM); in the assay with Candida albicans 73/079 (setting [5]), 8 µg/mL (≈ 8.97 µM).
On to `C[C@@H]1[C@H](O)[C@@H](C)/C=C/C=C/C=C/C=C/C=C/C=C/C=C/[C@H](O[C@@H]2O[C@H](C)[C@@H](O)[C@H](N)[C@@H]2O)C[C@@H]2OC(=C[C@H](O)[C@H]2C(=O)O)C[C@@H](O)C[C@@H](O)[C@H](O)CC[C@@H](O)C[C@@H](O)CC(=O)O[C@H]1C` [Example E6, 13,14-Anhydroamphotericin B], for which the minimal inhibitory concentration (MIC) in assay [1] (setting [2]) was 4 µg/mL (≈ 4.41 µM); in assay [1] (setting [3]) it was 8 µg/mL (≈ 8.83 µM); against Candida albicans 73/079 (setting [4]) it was 2 µg/mL (≈ 2.21 µM); against Candida albicans 73/079 (setting [5]) it was 4 µg/mL (≈ 4.41 µM).

In general, MIC refers to the lowest concentration that inhibits growth of the organism. Read a high MIC as a need for much substance.
